Results taken from ChEMBL document CHEMBL5352446, “Synthesis and biological evaluation of a novel c-Myc inhibitor against colorectal cancer via blocking c-Myc/Max heterodimerization and disturbing its DNA binding” (Eur J Med Chem, 2022).
Activity calls are given as the source filed them. The rule behind the calls is not given here.

Assays:
[1] = tested on: HCT-15; test: Antiproliferative activity against human HCT-15 cells incubated for 72 hrs by MTT assay; format: functional, cell-based; settings: HCT-15, 72 h
[2] = tested on: HT-29; test: Potency index, ratio of 5-Fu IC50 to test compound IC50 for antiproliferative activity against human HT-29 cells; format: functional
[3] = tested on: HT-29; test: Inhibition of colony formation in human HT-29 cells measured after 14 days by crystal violet staining based assay; format: functional, cell-based; settings: dose 0.25-2 µM, time 14.0 day
[4] = tested on: HT-29; test: Inhibition of cell migration in human HT-29 cells incubated for 48 hrs by wound healing analysis; format: functional, cell-based
[5] = tested on: HCT-116; test: Inhibition of cell migration in human HCT-116 cells incubated for 48 hrs by wound healing analysis; format: functional, cell-based
[6] = tested on: HCT-116; test: Downregulation of c-Myc expression in human HCT-116 cells incubated for 24 hrs by Western blot analysis; format: functional, cell-based; settings: dose 2.5-10 µM
[7] = tested on: HT-29; test: Induction of apoptosis in human HT-29 cells assessed as downregulation of Bcl-2 expression incubated for 24 hrs by Western blot analysis; format: functional, cell-based; settings: dose 2.5-10 µM
[8] = tested on: HT-29; test: Induction of apoptosis in human HT-29 cells assessed as upregulation of cleaved caspase 9 expression incubated for 24 hrs by Western blot analysis; format: functional, cell-based; settings: dose 2.5-10 µM
[9] = tested on: HT-29; test: Induction of apoptosis in human HT-29 cells assessed as upregulation of Bax expression incubated for 24 hrs by Western blot analysis; format: functional, cell-based; settings: dose 2.5-10 µM
[10] = tested on: HT-29; test: Induction of cell cycle arrest in human HT-29 cells assessed as accumulation of cells at G1 phase at 0.625 uM incubated for 24 hrs by propidium iodide staining based flow cytometry analysis (reference value: 65.37 %); format: functional
[11] = tested on: HT-29; test: Induction of cell cycle arrest in human HT-29 cells assessed as accumulation of cells at G2 phase at 0.625 uM incubated for 24 hrs by propidium iodide staining based flow cytometry analysis (reference value: 16.33 %); format: functional
[12] = tested on: HT-29; test: Induction of cell cycle arrest in human HT-29 cells assessed as accumulation of cells at S phase at 1.25 uM incubated for 24 hrs by propidium iodide staining based flow cytometry analysis (reference value: 12.01 %); format: functional
[13] = tested on: HT-29; test: Induction of cell cycle arrest in human HT-29 cells assessed as accumulation of cells at G1 phase at 2.5 uM incubated for 24 hrs by propidium iodide staining based flow cytometry analysis (reference value: 65.37 %); format: functional
[14] = tested on: HT-29; test: Induction of cell cycle arrest in human HT-29 cells assessed as accumulation of cells at S phase at 5 uM incubated for 24 hrs by propidium iodide staining based flow cytometry analysis (reference value: 12.01 %); format: functional
[15] = tested on: HT-29; test: Induction of apoptosis in human HT-29 cells assessed as late apoptotic cells at 0.625 uM incubated for 24 hrs by FITC Annexin-V and PI staining based flow cytometry analysis (reference value: 0.78%); format: functional
[16] = tested on: HT-29; test: Induction of apoptosis in human HT-29 cells assessed as necrotic cells at 0.625 uM incubated for 24 hrs by FITC Annexin-V and PI staining based flow cytometry analysis (reference value: 0.13%); format: functional
[17] = tested on: HT-29; test: Induction of apoptosis in human HT-29 cells assessed as early apoptotic cells at 1.25 uM incubated for 24 hrs by FITC Annexin-V and PI staining based flow cytometry analysis (reference value: 2.15%); format: functional
[18] = tested on: HT-29; test: Induction of apoptosis in human HT-29 cells assessed as late apoptotic cells at 1.25 uM incubated for 24 hrs by FITC Annexin-V and PI staining based flow cytometry analysis (reference value: 0.78%); format: functional
[19] = tested on: HT-29; test: Induction of apoptosis in human HT-29 cells assessed as necrotic cells at 1.25 uM incubated for 24 hrs by FITC Annexin-V and PI staining based flow cytometry analysis (reference value: 0.13%); format: functional
[20] = tested on: HT-29; test: Induction of apoptosis in human HT-29 cells assessed as early apoptotic cells at 2.5 uM incubated for 24 hrs by FITC Annexin-V and PI staining based flow cytometry analysis (reference value: 2.15%); format: functional
[21] = tested on: HT-29; test: Induction of apoptosis in human HT-29 cells assessed as late apoptotic cells at 2.5 uM incubated for 24 hrs by FITC Annexin-V and PI staining based flow cytometry analysis (reference value: 0.78%); format: functional
[22] = tested on: HT-29; test: Induction of apoptosis in human HT-29 cells assessed as necrotic cells at 2.5 uM incubated for 24 hrs by FITC Annexin-V and PI staining based flow cytometry analysis (reference value: 0.13%); format: functional
[23] = tested on: HT-29; test: Induction of apoptosis in human HT-29 cells assessed as necrotic cells at 5 uM incubated for 24 hrs by FITC Annexin-V and PI staining based flow cytometry analysis (reference value: 0.13%); format: functional
[24] = tested on: HT-29; test: Induction of apoptosis in human HT-29 cells assessed as viable cells at 10 uM incubated for 24 hrs by FITC Annexin-V and PI staining based flow cytometry analysis (reference value: 96.94%); format: functional; settings: read-out: Activity
[25] = tested on: HT-29; test: Induction of apoptosis in human HT-29 cells assessed as late apoptotic cells at 10 uM incubated for 24 hrs by FITC Annexin-V and PI staining based flow cytometry analysis (reference value: 0.78%); format: functional
[26] = species: Homo sapiens; test: Inhibition of human Myc (353 to 439 residues)/Max(S) (151 residues) expressed in Escherichia coli BL21(DE3) binding to biotinylated double-stranded DNA oligonucleotide 5'-CACCCGGTCACTGGCCTACAC-3' (unknown origin) preincubated for 90 mins followed by oligonucleotide addition for 25 mins by EMSA; settings: time 115.0 min
[27] = tested on: HT-29; test: Antitumor activity against human HT-29 cells xenografted in ip dosed BALB/c mouse assessed as tumor growth inhibition administered daily for 3 weeks by caliper method; format: functional, organism-based; settings: dose 40-80 mg/kg
[28] = tested on: HT-29; test: Antitumor activity against human HT-29 cells xenografted in BALB/c mouse assessed as tumor growth inhibition at 40 mg/kg, ip administered daily for 3 weeks by caliper method; format: functional; settings: HT-29, 504 h, read-out: TGI
[29] = Toxicity in BALB/c mouse xenografted with human HT-29 cells assessed as body weight loss at 40 to 80 mg/kg, ip measured after 21 days; format: organism-based; settings: in vivo, 504 h, dose 40-80 mg/kg, time 21 day
[30] = Toxicity in BALB/c mouse xenografted with human HT-29 cells assessed as heart damage at 40 to 80 mg/kg, ip measured after 21 days by H and E staining based assay; format: organism-based; settings: in vivo, 504 h, dose 40-80 mg/kg, time 21 day
[31] = Toxicity in BALB/c mouse xenografted with human HT-29 cells assessed as liver damage at 40 to 80 mg/kg, ip measured after 21 days by H and E staining based assay; format: organism-based; settings: in vivo, 504 h, dose 40-80 mg/kg, time 21 day
[32] = Toxicity in BALB/c mouse xenografted with human HT-29 cells assessed as kidney damage at 40 to 80 mg/kg, ip measured after 21 days by H and E staining based assay; format: organism-based; settings: in vivo, 504 h, dose 40-80 mg/kg, time 21 day
[33] = Toxicity in BALB/c mouse xenografted with human HT-29 cells assessed as spleen damage at 40 mg/kg, ip measured after 21 days by H and E staining based assay; format: organism-based; settings: in vivo, 504 h, time 21 day
[34] = tested on: HCT-116; test: cells; settings: Homo sapiens, HCT-116, 72 h
Description: Antiproliferative activity against human HCT-116 cells incubated for 72 hrs by MTT assay

In the case of `COc1cc(Oc2ccc(Nc3ccc(CCCO)cc3)cc2)cc(OC)c1CNCCc1ccc(C(F)(F)F)cc1`, the IC50 [1] is reported as 2.34 µM, the “Ratio IC50” value [2] is reported as 32 and the inhibition [3] is reported as “Dose-Dependent Effect”. For the same compound, the inhibition [4] was “Active”, the inhibition [5] was “Active” and the Activity [6] was “Dose-Dependent Effect”. The Activity [7] was “Dose-Dependent Effect”, the Activity [8] was “Dose-Dependent Effect” and the Activity [9] was “Dose-Dependent Effect”. For the same compound, the Activity [10] was 71.78%, the Activity [11] was 11.95% and the Activity [12] was 13.16%. For the same compound, the Activity [13] was 75.57%, the Activity [14] was 12.16% and the Activity [15] was 3.14%. It also gave an Activity [16] of 1.44%, an Activity [17] of 12.78% and an Activity [18] of 4.55%. It also gave an Activity [19] of 1.72%, an Activity [20] of 19.39% and an Activity [21] of 7.03%. It also gave an Activity [22] of 3.95%, an Activity [23] of 1.29% and a viability at 10 µM [24] of 55.6%. For the same compound, the Activity [25] was 13.52%, the inhibition [26] was “Dose-Dependent Effect” and the Activity [27] was “Dose-Dependent Effect”. For the same compound, the inhibition in vivo at 40 mg/kg [28] was 65.5%, the Activity [29] was “Non-Toxic” and the Activity [30] was “Non-Toxic”. For the same compound, the Activity [31] was “Non-Toxic”, the Activity [32] was “Non-Toxic” and the Activity [33] was “Toxic”. It also gave an IC50 [34] of 0.64 µM.
